Data reported in article PMC11823630, “In vitro potentiation of tetracyclines in Pseudomonas aeruginosa by RW01, a new cyclic peptide” (Antimicrobial Agents and Chemotherapy, 2024).
Converted amounts (≈) assume the structure as drawn.

Tests used:
[1] = test system: PAO1 one-step mutants; experiment: MIC, MHB microdilution, mutants summarised as a group; format: cell-based, Pseudomonas aeruginosa
Description: MIC for RW01 was also tested.
Selection of resistant mutants was performed for minocycline with and without RW01 in three independent replicates for wild-type P. aeruginosa reference strain PAO1. Tubes containing Mueller-Hinton broth (MHB) were inoculated and incubated for 24 h at 37°C. Afterward, 1/100 dilution of each tube was incubated at 37°C in MHB to late-exponential growth phase, measured by spectrophotometry at OD600. […] A control plate without antibiotic was included as inoculum control. After overnight incubation, colony counting of each treatment was performed to analyze the generation of resistant population. The mutant prevention concentration (MPC) was defined as the lowest concentration of antibiotic yielding no growth of resistant mutants. Selected mutants were checked for susceptibility profiles by using a Sensititre custom plate (Thermo Fisher Scientific, Massachusetts, USA) for Gram-negative bacteria, following the manufacturer’s instructions.

[2] = test system: PAO1 mutant MIN32_1, mexR(R63H), pilB(N349K), PA0646(V316G); experiment: MIC, MHB microdilution; settings: Pseudomonas aeruginosa, PAO1, read-out: MIC, MHB microdilution
[3] = test system: PAO1 mutant MIN1_RW01_2, mexR(G58E), pilB(G326D), hutC(Y181X); experiment: MIC, MHB microdilution; settings: Pseudomonas aeruginosa, PAO1, read-out: MIC, MHB microdilution

CN(C)c1ccc(O)c2c1C[C@H]1C[C@H]3[C@H](N(C)C)C(O)=C(C(N)=O)C(=O)[C@@]3(O)C(O)=C1C2=O [Minocycline, minocycline]
MIC ([1]; Pseudomonas aeruginosa, PAO1, read-out: highest MIC among the mutants): ≤ 64 µg/mL
MIC range over the tested mutants ([1]; agent alone, both mutant types, for minocycline the typical range): 16 to 32 µg/mL
MIC of the minocycline-RW01 combination ([1]; mutants selected by minocycline + RW01): 4.0 to 8.0 µg/mL
MIC [2]: 32 to 64 µg/mL (≈ 69.9 to 140 µM)
MIC [3]: 32 to 64 µg/mL (≈ 69.9 to 140 µM)
